From article PMC5573764, “Enzymatic characterization of a recombinant carbonyl reductase from Acetobacter sp. CCTCC M209061” (Bioresources and Bioprocessing, 2017) come the findings set out here.

Structures are written as SMILES.

Format in all cases: biochemical, Acetobacter sp. CCTCC M209061
Test [1] deals with T1, AcCR (recombinant carbonyl reductase; GAcCR) (Acetobacter sp., UniProt A0A2S1GUX7).
T1 construct: N-terminal GST fusion from pGEX-2T, tag kept, about 53 kDa on SDS-PAGE; E. coli BL21(DE3)pLysS
In words: NADH absorbance at […] nm, initial rates. The conditions noted are these: pH 6.5, 35 °C (optimum conditions), GST-tagged enzyme.

In test [2] the target is T1, AcCR (recombinant carbonyl reductase; GAcCR). In words: NADH formation at […] nm, initial rates. To be noted: 45 °C, optimum conditions (pH 8.0 in assay method, optimum 8.5), GST-tagged enzyme.
The target is the same in test [3]. Kind of test: NADPH formation at […] nm, initial rates. To be noted: oxidation of isopropanol; 45 °C; optimum conditions (pH 8.0 in assay method); GST-tagged enzyme.

T1 sequence (A0A2S1GUX7 1-253): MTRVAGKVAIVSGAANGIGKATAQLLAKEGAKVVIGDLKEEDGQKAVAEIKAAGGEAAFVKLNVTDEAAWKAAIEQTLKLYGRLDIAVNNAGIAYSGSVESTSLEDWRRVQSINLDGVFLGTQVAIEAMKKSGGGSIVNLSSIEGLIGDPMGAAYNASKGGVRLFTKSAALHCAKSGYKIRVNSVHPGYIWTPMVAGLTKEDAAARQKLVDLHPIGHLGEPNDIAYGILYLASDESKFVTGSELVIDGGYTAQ

The Km is the concentration of substrate that gives half-maximal velocity. Take `CC(=O)c1ccc(Cl)cc1` [4′-Chloroacetophenone]: in test [1] (co-substrate NADH), the Km came out at 260 µM.
In the case of `CC(C)O` [Isopropanol], in test [2] (co-substrate NAD+), the Km was found to be 23800 µM.
As for `NC(=O)C1=CN([C@@H]2O[C@H](COP(=O)(O)OP(=O)(O)OC[C@H]3O[C@@H](n4cnc5c(N)ncnc54)[C@H](O)[C@@H]3O)[C@@H](O)[C@H]2O)C=CC1` [NADH], the Km in test [1] (reduction of 4'-chloroacetophenone) was 160 µM.
As for `NC(=O)c1ccc[n+]([C@@H]2O[C@H](COP(=O)(O)OP(=O)(O)OC[C@H]3O[C@@H](n4cnc5c(N)ncnc54)[C@H](OP(=O)(O)O)[C@@H]3O)[C@@H](O)[C@H]2O)c1` [NADP^+], the Michaelis constant (Km) in test [3] turned out to be 1390 µM.
Consider `NC(=O)c1ccc[n+]([C@@H]2O[C@H](COP(=O)(O)OP(=O)(O)OC[C@H]3O[C@@H](n4cnc5c(N)ncnc54)[C@H](O)[C@@H]3O)[C@@H](O)[C@H]2O)c1` [NAD^+], for which the Michaelis-Menten constant (Km) in test [2] (oxidation of isopropanol) stood at 380 µM.
